Data on five molecules can be found in ChEMBL document CHEMBL1909294, “Translating clinical findings into knowledge in drug safety evaluation--drug induced liver injury prediction system (DILIps)” (PLoS Comput Biol, 2011).

Each structure is given as a SMILES string.

Data set [1] has as its system Hepatotoxicity.
For data set [2], the system named is Hepatotoxicity. This is another data set of the same source.
Data set [3] deals with Hepatotoxicity. The source holds these as a separate data set.
The subject of data set [4] is Hepatotoxicity. This is another data set of the same source.
The test system of data set [5] is Hepatotoxicity. This is another data set of the same source.
Data set [6] deals with Hepatotoxicity. The source holds these as a separate data set.
The test system of data set [7] is Hepatotoxicity. The source holds these as a separate data set.
Data set [8] relates to Hepatotoxicity. The source holds these as a separate data set.
Data set [9] relates to Hepatotoxicity. The source holds these as a separate data set.
In data set [10] the test system is Hepatotoxicity. The source holds these as a separate data set.
Data set [11] deals with Hepatotoxicity. This is another data set of the same source.
The test system of data set [12] is Hepatotoxicity. The source holds these as a separate data set.
For data set [13], the system named is Hepatotoxicity. The source holds these as a separate data set.
The subject of data set [14] is Hepatotoxicity. This is another data set of the same source.
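Wherever HepSE Combined Scores is given: combined hepatic side effect score as listed in the training data of the Drug Induced Liver Injury Prediction System (DILIps).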
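Wherever HepSE bilirubinemia is given: bilirubinemia hepatic side effect score drawn from the DILIps training data, a prediction system for drug-induced liver injury; call rule not given here.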
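Wherever HepSE cholecystitis is given: Cholecystitis-related hepatic side effect score drawn from the DILIps (drug-induced liver injury prediction) training data set; call rule not given here.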
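Wherever HepSE cholelithiasis is given: hepatic side effect score for cholelithiasis, drawn from the DILIps training data for predicting drug-induced liver injury; call rule not given here.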
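Wherever HepSE cirrhosis is given: cirrhosis hepatic side effect score taken from the DILIps (drug-induced liver injury prediction) training set; call rule not given here.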
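Wherever HepSE elevated liver function tests is given: hepatic side effect score for raised liver function tests, as recorded in the DILIps training set used for predicting drug-induced liver injury.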
Wherever HepSE hepatic failure is given: call rule not given here.
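Wherever HepSE hepatic necrosis is given: score of hepatic side effects for hepatic necrosis, drawn from the training data of DILIps, a prediction system for drug-induced liver injury; call rule not given here.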
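Wherever HepSE hepatitis is given: Hepatitis-related hepatic side effect score taken from the training data of DILIps, a prediction system for drug-induced liver injury; call rule not given here.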
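Wherever HepSE hepatomegaly is given: hepatic side effect score for hepatomegaly, taken from the training set of the DILIps drug-induced liver injury prediction system; call rule not given here.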
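Wherever HepSE jaundice is given: Jaundice-related hepatic side-effect score drawn from the training data of the DILIps (drug-induced liver injury prediction system); call rule not given here.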
Wherever HepSE liver disease is given: call rule not given here.
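Wherever HepSE liver fatty is given: hepatic side effect score for fatty liver, taken from the DILIps training set for predicting drug-induced liver injury; call rule not given here.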
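Wherever HepSE liver function tests abnormal is given: hepatic side effect score taken from the DILIps (drug-induced liver injury prediction system) training data, here covering abnormal liver function test findings.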

In turn, `CCCN(CCC)S(=O)(=O)c1ccc(C(=O)O)cc1` [PROBENECID] had a HepSE_bilirubinemia in [1] of 0. The molecule also displayed a HepSE_cholecystitis in data set [2] of 0. This molecule also gave a HepSE_cholelithiasis in [3] of 0. Besides, the HepSE_cirrhosis in data set [4] is on record as 0. In addition, the “HepSE_elevated liver function tests” value in data set [5] turned out to be 0. The same molecule registered a HepSE_hepatic failure in data set [6] of 0. In [7], this molecule returned a HepSE_hepatic necrosis of 1. The molecule further registered a HepSE_hepatitis in data set [8] of 0. The HepSE_hepatomegaly in data set [9] is given as 0. Besides, in data set [10], the HepSE_jaundice was 0. This molecule had a HepSE_liver disease in data set [11] of 0. This molecule also registered a HepSE_liver fatty in [12] of 0. The “HepSE_liver function tests abnormal” value in [13] came to 0. Besides, the “HepSE_Combined Scores” value in data set [14] is listed as 1.

In data set [1] (Liver), `COc1cc(Br)c(C[N+]2(CCOCCC3CCC4CC3C4(C)C)CCOCC2)cc1OC.[Br-]` (stereo not given) [PINAVERIUM BROMIDE] yielded a HepSE_bilirubinemia of 0. The molecule also came in with a HepSE_cholecystitis in [2] (Liver) of 0. Further, in data set [3] (Liver), the HepSE_cholelithiasis is reported as 0. In [4] (Liver), this molecule yielded a HepSE_cirrhosis of 0. The “HepSE_elevated liver function tests” value in data set [5] (Liver) is 0. This molecule also yielded a HepSE_hepatic failure in data set [6] (Liver) of 0. This molecule had a HepSE_hepatic necrosis in data set [7] (Liver) of 0. In data set [8] (Liver), this molecule returned a HepSE_hepatitis of 0. Further, the HepSE_hepatomegaly in data set [9] (Liver) is listed as 0. Besides, the HepSE_jaundice in data set [10] (Liver) is 0. The HepSE_liver disease in [11] (Liver) is recorded as 0. In [12] (Liver), this molecule registered a HepSE_liver fatty of 0. Also, the “HepSE_liver function tests abnormal” value in data set [13] (Liver) is reported as 0. In addition, in [14] (Liver), the “HepSE_Combined Scores” value is 0.

As for `CO[C@H]1/C=C/O[C@@]2(C)Oc3c(C)c(O)c4c(O)c(c(/C=N/N5CCN(C)CC5)c(O)c4c3C2=O)NC(=O)/C(C)=C\C=C\[C@H](C)[C@H](O)[C@@H](C)[C@@H](O)[C@@H](C)[C@H](OC(C)=O)[C@@H]1C` [RIFAMPIN], in [1], the HepSE_bilirubinemia was 0. Besides, the HepSE_cholecystitis in data set [2] is 0. The HepSE_cholelithiasis in [3] was determined as 0. This molecule showed a HepSE_cirrhosis in data set [4] of 0. In data set [5], the “HepSE_elevated liver function tests” value amounted to 0. The HepSE_hepatic failure in data set [6] is recorded as 0. The molecule also gave a HepSE_hepatic necrosis in [7] of 0. Also, the HepSE_hepatitis in data set [8] amounted to 1. For the same molecule, the HepSE_hepatomegaly in data set [9] stood at 0. For the same molecule, in data set [10], the HepSE_jaundice is 1. Further, in data set [11], the HepSE_liver disease is 0. In data set [12], this molecule had a HepSE_liver fatty of 0. Besides, in data set [13], the “HepSE_liver function tests abnormal” value came out at 1. Also, the “HepSE_Combined Scores” value in data set [14] came out at 3.

In turn, `CC(C)Nc1cccnc1N1CCN(C(=O)c2cc3cc(NS(C)(=O)=O)ccc3[nH]2)CC1` [DELAVIRDINE] displayed a HepSE_bilirubinemia in data set [1] of 1. This molecule also displayed a HepSE_cholecystitis in data set [2] of 0. This molecule also came in with a HepSE_cholelithiasis in data set [3] of 0. The HepSE_cirrhosis in data set [4] worked out at 0. Also, in data set [5], the “HepSE_elevated liver function tests” value was 0. In [6], the HepSE_hepatic failure is listed as 1. Further, the HepSE_hepatic necrosis in data set [7] was found to be 0. The same molecule came in with a HepSE_hepatitis in [8] of 1. The same molecule yielded a HepSE_hepatomegaly in [9] of 1. In data set [10], this molecule registered a HepSE_jaundice of 1. For the same molecule, the HepSE_liver disease in data set [11] turned out to be 0. In addition, the HepSE_liver fatty in data set [12] is 0. In addition, the “HepSE_liver function tests abnormal” value in [13] is on record as 0. The “HepSE_Combined Scores” value in data set [14] amounted to 5.

The molecule `CC(C[N+](C)(C)C)OC(N)=O` (stereo not given) [BETHANECHOL] had a HepSE_bilirubinemia in [1] (Liver) of 0. This molecule also had a HepSE_cholecystitis in data set [2] (Liver) of 0. Moreover, the HepSE_cholelithiasis in [3] (Liver) was found to be 0. The HepSE_cirrhosis in data set [4] (Liver) amounted to 0. Also, the “HepSE_elevated liver function tests” value in data set [5] (Liver) is on record as 0. For the same molecule, the HepSE_hepatic failure in data set [6] (Liver) is reported as 0. In data set [7] (Liver), the HepSE_hepatic necrosis was 0. The same molecule displayed a HepSE_hepatitis in data set [8] (Liver) of 0. Also, the HepSE_hepatomegaly in data set [9] (Liver) is reported as 0. In addition, in data set [10] (Liver), the HepSE_jaundice was 0. Besides, the HepSE_liver disease in data set [11] (Liver) is reported as 0. The same molecule displayed a HepSE_liver fatty in [12] (Liver) of 0. In addition, the “HepSE_liver function tests abnormal” value in [13] (Liver) is given as 0. In data set [14] (Liver), the “HepSE_Combined Scores” value was found to be 0.
